“Also recorded” adds a separate entry of the source. Read-outs that look alike come from different tables or passages of the source.
Assays:
[1] = tested on: HCMV AD169; assay: virus yield reduction assay; type: cell-based, human cytomegalovirus
Procedure: Next, we tested the effects of selected compounds and of GCV as a control in viral yield assays, which measure the titer of virus progeny produced following infection at relatively high multiplicity. In these assays, the viral titer was measured at two different times points post-infection (p.i.): at 96 hrs, when the release of virus progeny is increasing, and at 120 hrs, when the titer of virus progeny after a single cycle of replication reaches peak levels (Stinski, 1983).
(§1) For yield reduction assays, HFF cells were plated at 2×10^4 cells per well in 96-well cluster dishes, incubated overnight, and infected with HCMV AD169 at a multiplicity of infection (MOI) of 1. After virus adsorption for 2 hr at 37° C., cells were washed and incubated with 200 μl of fresh media containing test compounds at increasing drug concentration. Plates were incubated for 3 or 5 days at 37° C. and subjected to one cycle of freezing and thawing, and titers were determined by transferring 100-μl aliquots from each of the wells to a fresh 96-well monolayer culture of HFF cells followed by 1:5 serial dilution across the plate. Cultures were incubated for 7 days, cells were stained, and the numbers of plaques were determined as described above.
as §1, with “The effect of the compounds was assessed in an assay of virus yield. In this assay, cells are infected at a relatively high multiplicity of infection (about one per cell) and then drug is added. The virus produced at the different times post infection is measured. 120 hrs. is about the peak titer. This assay was conducted as follows.” for “For yield reduction assays,”, “20,000” for “2×10^4”, “an MOI” for “a multiplicity of infection (MOI)”, “0.1, 0.3, 1, 3, 10, 30 μM” for “increasing”

[2] = target: T1, full-length UL54 / UL44 interaction (Human cytomegalovirus, UniProt P16790); assay: UL54-UL44 interaction ELISA; type: binding, HCMV; conditions: concentrations up to 200 μM
T1 construct: made in house; host or cells: baculovirus expression; proteins provided by H. S. Marsden (Institute of Virology, Glasgow)
T1 sequence (P16790 whole entry): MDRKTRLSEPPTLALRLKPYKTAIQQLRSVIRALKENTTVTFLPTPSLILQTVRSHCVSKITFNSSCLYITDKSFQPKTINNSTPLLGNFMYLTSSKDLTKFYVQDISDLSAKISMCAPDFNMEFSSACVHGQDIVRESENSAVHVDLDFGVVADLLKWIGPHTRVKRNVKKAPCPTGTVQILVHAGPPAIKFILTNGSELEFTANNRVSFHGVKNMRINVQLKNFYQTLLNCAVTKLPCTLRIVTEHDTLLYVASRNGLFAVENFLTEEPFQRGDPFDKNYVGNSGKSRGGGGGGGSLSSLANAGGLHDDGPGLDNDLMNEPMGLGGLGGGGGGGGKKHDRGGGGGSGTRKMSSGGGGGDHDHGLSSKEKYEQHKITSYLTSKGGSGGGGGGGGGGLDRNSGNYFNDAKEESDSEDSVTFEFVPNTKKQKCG
Procedure: In this assay, binding between purified baculovirus-expressed UL54 and UL44, which was tagged with an EEF epitope, was detected using an antibody that recognizes the epitope tag (Loregian et al., 2003).
UL54-UL44 interaction ELISA. This assay was conducted as described in (Loregian et al., 2003), testing various concentrations of each compound. After final washes, the chromogenic substrate 2,2′-azino-bis(3-ethylbenzothiazoline-6-sulphonic acid (ABTS, Pierce) in citrate phosphate buffer (pH 4.0) containing 0.01% hydrogen peroxide was added and absorbance was read at 405 nm on a Victor plate reader (Wallac).
Another assay that was used to test the effect of the compounds on the interaction of UL44 and UL54 is an ELISA interaction assay, which measures the interaction of the two full length proteins with each other. This assay was conducted as described in Loregian et al., J. Virol. 2003, 77:8336-8344, testing different concentrations (0, 3.12, 6.25, 12.5, 25, 50, 100, 200 μM) of each compound.

[3] = tested on: HCMV strain AD169; assay: plaque reduction assay; type: cell-based, human cytomegalovirus; conditions: HFF cells; 0-30 μM
Procedure: Antiviral assays. Plaque reduction assays were performed essentially as follows: HFF (human foreskin fibroblast) cells were seeded at 2×10^5 cells per well in 24-well cluster dishes. The next day, cells were infected with HCMV (strain AD169) at 80 PFU per well in DMEM plus 5% fetal bovine serum (FBS) at 37° C. Two hours post-infection, the inocula were removed, cells were washed, and media containing various drug dilutions, 5% FBS, and 0.6% methylcellulose were added. All drug dilutions were tested at least in duplicate. After incubation at 37° C. for 10-11 days, cell monolayers were stained with crystal violet and plaques were counted under light microscopy.
The effect of the compounds was assessed in a plaque reduction assay that measures the number of plaques formed in the presence of varying concentrations of a drug, as follows. HFF were seeded at 2×10^5 cells per well in 24-well cluster dishes. The next day, they were infected with HCMV AD169 at 80 PFU per well in DMEM plus 5% FBS at 37° C. Two hr post-infection, the inocula were then removed, cells were washed, and media containing selected drug dilutions (0, 0.1, 0.3, 1, 3, 10, 30 μM), and 5% FBS and 0.6% methylcellulose were added. All drug dilutions were tested at least in duplicate. After incubation at 37° C. for 10-11 days, cell monolayers were stained with crystal violet and plaques were enumerated under light microscopy.

[4] = target: T2, UL54 plus GST-UL44ΔC290 (Human cytomegalovirus, UniProt P16790); assay: long-chain DNA synthesis by UL54 in the presence of UL44; type: biochemical, HCMV; conditions: for inhibition of long-chain DNA synthesis by UL54 and UL44 at one concentration: 40 μM; for inhibition of long-chain DNA synthesis by UL54 and UL44: dose-response
T2 construct: GST-UL44ΔC290 fusion protein, which contains the N-terminal 290 residues of HCMV UL44; made in house; host or cells: UL54: in vitro transcription/translation; GST-UL44ΔC290: E. coli BL21 (DE3)pLysS
T2 sequence (P16790 1-290, stated change not applied): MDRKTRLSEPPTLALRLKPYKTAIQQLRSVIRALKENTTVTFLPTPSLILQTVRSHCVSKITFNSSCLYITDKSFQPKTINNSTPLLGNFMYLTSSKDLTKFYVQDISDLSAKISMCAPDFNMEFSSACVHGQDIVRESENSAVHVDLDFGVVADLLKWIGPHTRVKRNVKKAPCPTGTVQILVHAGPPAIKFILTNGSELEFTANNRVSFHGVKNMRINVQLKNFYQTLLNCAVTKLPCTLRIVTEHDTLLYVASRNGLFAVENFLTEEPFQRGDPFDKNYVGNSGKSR
Procedure: To analyze the ability of the compounds to interfere with functional UL54-UL44 interactions, we tested their ability to inhibit long-chain DNA synthesis by UL54 in the presence of UL44 employing a poly(dA)-oligo(dT)12-18 template-primer.
DNA polymerase assays. The effects of compounds were tested in an assay that measures long-chain DNA synthesis as described in Loregian et al. (Loregian et al., 2004a), with 5 μl of in vitro-transcribed and -translated UL54 plus 800 fmol of GST-UL44ΔC290 in the absence or in the presence of various amounts of each compound.
The effect of the compounds was also tested in an assay that measures long chain (Lc) DNA synthesis as described in Loregian et al., J. Virol. […]

[5] = tested on: HFF cells; assay: XTT cytotoxicity assay; type: cell-based, human
Procedure: (§2) Cytotoxicity assays. HFF cells were seeded at 2×10^4, 4×10^3, or 10^3 cells per well into 96-well plates and, after a 3-hr incubation to allow cell attachment, were treated for 24, 72, or 120 hr, respectively, with various concentrations of each compound in duplicate. Cell viability was then determined with an XTT assay (Roche Molecular Biochemicals) according to the manufacturer's protocol by using a Victor plate reader (Wallac).
(§3) The cytotoxicity of the compounds was measured in an XTT assay. XTT is a compound that is converted to a product that can be measured […], but only by viable cells. This assay is as follows. HFF (human foreskin fibroblasts) cells were seeded at different concentrations into 96-well plates and treated with various concentrations (from 0 to 200 μM) of each compound in duplicate for 24, 72 or 120 hr. Cell viability was then determined with an XTT assay (Roche Molecular Biochemicals) according to the manufacturer's protocol by using a Victor plate reader (Wallac).

[6] = target: UL54 (Human cytomegalovirus, UniProt P08546); assay: basal DNA polymerase activity of UL54 alone (filter-based assay); type: biochemical; conditions: 0, 4, 20, 40, 100 μM; 20 min at 37° C.; read-out: IC50 for inhibition of the activity of UL54 alone
Sequence of UL54 (P08546 whole entry): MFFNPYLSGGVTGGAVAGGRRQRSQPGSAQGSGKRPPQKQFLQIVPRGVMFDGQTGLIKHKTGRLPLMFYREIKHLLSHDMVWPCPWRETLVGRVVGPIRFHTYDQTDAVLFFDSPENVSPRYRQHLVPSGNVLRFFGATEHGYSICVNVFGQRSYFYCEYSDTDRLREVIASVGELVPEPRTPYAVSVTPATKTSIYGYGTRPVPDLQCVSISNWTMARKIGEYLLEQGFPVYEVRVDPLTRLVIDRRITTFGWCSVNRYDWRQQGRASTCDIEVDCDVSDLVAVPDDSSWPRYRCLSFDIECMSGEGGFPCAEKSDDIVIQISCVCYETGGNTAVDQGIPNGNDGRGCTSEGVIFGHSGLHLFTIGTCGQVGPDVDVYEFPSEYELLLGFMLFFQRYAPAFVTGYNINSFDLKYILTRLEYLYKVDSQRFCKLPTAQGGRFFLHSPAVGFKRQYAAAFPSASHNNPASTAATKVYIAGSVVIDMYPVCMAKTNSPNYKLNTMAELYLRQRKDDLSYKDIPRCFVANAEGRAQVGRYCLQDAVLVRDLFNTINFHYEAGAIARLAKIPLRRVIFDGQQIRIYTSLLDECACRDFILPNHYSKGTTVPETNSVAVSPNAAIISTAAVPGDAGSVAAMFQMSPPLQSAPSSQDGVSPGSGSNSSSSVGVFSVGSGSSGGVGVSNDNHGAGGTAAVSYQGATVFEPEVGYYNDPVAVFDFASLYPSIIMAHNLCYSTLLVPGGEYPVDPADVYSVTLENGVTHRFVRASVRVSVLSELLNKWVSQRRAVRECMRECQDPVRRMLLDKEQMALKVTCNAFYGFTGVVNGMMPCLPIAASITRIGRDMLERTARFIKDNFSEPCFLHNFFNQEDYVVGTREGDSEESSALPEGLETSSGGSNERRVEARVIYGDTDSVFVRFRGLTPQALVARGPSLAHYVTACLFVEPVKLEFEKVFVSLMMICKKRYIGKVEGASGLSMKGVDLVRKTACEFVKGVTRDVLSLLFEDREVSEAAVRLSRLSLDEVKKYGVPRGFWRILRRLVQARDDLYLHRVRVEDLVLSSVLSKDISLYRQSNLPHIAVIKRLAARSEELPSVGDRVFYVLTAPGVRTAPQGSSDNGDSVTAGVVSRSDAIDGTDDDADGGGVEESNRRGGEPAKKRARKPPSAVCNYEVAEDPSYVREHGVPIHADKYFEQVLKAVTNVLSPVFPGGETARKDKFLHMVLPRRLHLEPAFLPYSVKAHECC
Procedure: The basal DNA polymerase activity of UL54 in the absence or in the presence of various amounts of each compound was measured by a filter-based assay as previously described (Loregian et al., 2003), but using 5 μl of in vitro-transcribed and -translated UL54 as in Loregian et al. (Loregian et al., 2004a). The reaction was initiated by addition of a reaction mixture containing 75 mM Tris-HCl (pH 8.0), 6.5 mM MgCl2, bovine serum albumin (400 μg/ml), 1.67 mM β-mercaptoethanol, 150 mM KCl, 1.6 μM [^3H]dTTP, poly(dA)-oligo(dT) (10 μg/ml; Amersham Pharmacia Biotech), and 0, 4, 20, 40, 100 μM of each compound. Samples were taken after 20 min of incubation at 37° C. and spotted onto DE81 filters (Whatman), previously soaked in 0.1 M EDTA and air dried. The filters were washed three times in 5% Na2HPO4, two times in water, and two times in methanol and then were dried. Radioactivity was measured with a scintillation counter.

[7] = literature; cited from earlier work
[8] = XTT cytotoxicity assay; type: cell-based, human; conditions: human
Procedure: as §2, §3

Row | Compound | inhibition of the UL54-UL44 physical interaction [2] | IC50s in plaque reduction assay [3] | inhibition of long-chain DNA synthesis by UL54 and UL44 at one concentration [4] | inhibition of long-chain DNA synthesis by UL54 and UL44 [4] | cytotoxic concentration relative to antiviral concentration [5] | cytotoxicity [5] | effect on virus yield / HCMV replication [1] | also measured
1 | O=c1c2cccc3cccc(c32)c2nc3ccccc3n12 [AL12] | potent | relatively low IC50s | severely decreased formation of long DNA products | relatively low IC50s | 7-500 fold | relatively high CC50's | – | effect on virus yield / HCMV replication ([1]; HFF cells): relatively low IC50s
2 | Nc1ccc(N)c2c1C(=O)c1c(O)ccc(O)c1C2=O [AL18] | potent | relatively low IC50s | severely decreased formation of long DNA products | relatively low IC50s | – | – | relatively low IC50s; also recorded: submicromolar | CC50 ([5]; 120 hrs, HFF cells): 200 µM; cytotoxicity ([5]; HFF cells, 24, 72 or 120 hr): relatively high CC50's
3 | CCOc1cc(C2C(C#N)=C(N)Oc3n[nH]c(-c4ccc(OC)cc4)c32)cc([N+](=O)[O-])c1O (centres unmarked) [AL2] | – | – | – | little or no inhibition | – | – | little or no effect | IC50 [6]: 95 µM
4 | Nc1ccn(C[C@@H](CO)OCP(=O)(O)O)c(=O)n1 [cidofovir] | – | – | – | – | – | – | – | cytotoxic activities reported [7]: 360 µM
5 | Nc1nc(O)c2ncn(COC(CO)CO)c2n1 [GCV, ganciclovir, reference compound] | – | – | – | – | – | – | – | CC50 [8]: ~200 µM
6 | Cn1c(=O)cc2c3c(c(N4CCCCC4)ccc31)C(=O)c1ccccc1-2 [AL5] | potent | relatively low IC50s | severely decreased formation of long DNA products | relatively low IC50s | 7-500 fold | relatively high CC50's | relatively low IC50s | –

Source: patent US7893108B2, “Antiviral methods and compositions” (priority 2004, dated 2011)
